According to paper PMC3358478 (Chemical Research in Toxicology, 2012):
Entries after “also recorded” stand apart in the source; their conditions may differ.

Tests used:
rat P450 2B1 = biological target: T1, rat P450 2B1 (Rattus norvegicus, UniProt P00176); assay: Pentoxyresorufin O-depentylation; assay type: biochemical; conditions: for inhibition behavior toward P450 2B1: time-dependence
T1 sequence (P00176 1-491): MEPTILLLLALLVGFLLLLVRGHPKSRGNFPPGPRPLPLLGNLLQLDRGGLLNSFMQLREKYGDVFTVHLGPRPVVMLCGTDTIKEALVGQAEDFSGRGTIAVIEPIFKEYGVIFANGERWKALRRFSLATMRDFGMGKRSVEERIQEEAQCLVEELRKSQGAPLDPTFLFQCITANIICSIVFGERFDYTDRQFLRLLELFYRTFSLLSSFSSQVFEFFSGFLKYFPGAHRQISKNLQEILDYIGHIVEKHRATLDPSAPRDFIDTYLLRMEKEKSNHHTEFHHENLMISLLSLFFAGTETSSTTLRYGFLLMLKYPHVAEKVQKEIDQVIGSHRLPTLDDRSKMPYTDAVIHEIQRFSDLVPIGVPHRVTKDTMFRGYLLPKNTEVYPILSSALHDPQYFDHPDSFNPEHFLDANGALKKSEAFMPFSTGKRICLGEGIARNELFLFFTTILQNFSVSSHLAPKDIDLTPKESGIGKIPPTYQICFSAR

Human P450 1A2 = biological target: T2, Human P450 1A2 (Homo sapiens, UniProt P05177); assay: Methoxyresorufin O-demethylation; assay type: biochemical; conditions: for difference in the IC50 values, more effective on P450 1A2 than P450 1A1: IC50 1A1 vs 1A2; for inhibition behavior toward P450 1A2: concentration- and NADPH-dependence
T2 sequence (P05177 1-516): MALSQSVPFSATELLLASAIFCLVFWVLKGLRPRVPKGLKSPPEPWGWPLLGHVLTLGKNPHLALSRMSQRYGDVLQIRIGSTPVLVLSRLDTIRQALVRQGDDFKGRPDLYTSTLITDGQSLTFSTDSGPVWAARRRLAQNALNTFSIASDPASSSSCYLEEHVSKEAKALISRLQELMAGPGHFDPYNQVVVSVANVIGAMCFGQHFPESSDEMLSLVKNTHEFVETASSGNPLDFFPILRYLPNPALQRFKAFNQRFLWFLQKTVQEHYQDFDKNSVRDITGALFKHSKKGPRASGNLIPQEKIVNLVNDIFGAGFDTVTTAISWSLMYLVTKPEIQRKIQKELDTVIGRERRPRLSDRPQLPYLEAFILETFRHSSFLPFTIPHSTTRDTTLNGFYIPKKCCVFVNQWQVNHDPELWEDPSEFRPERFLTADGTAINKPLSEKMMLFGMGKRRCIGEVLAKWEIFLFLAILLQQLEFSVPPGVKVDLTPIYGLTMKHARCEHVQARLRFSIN

Human P450 1A1 = biological target: T3, Human P450 1A1 (Homo sapiens, UniProt P04798); assay: Ethoxyresorufin O-deethylation; assay type: biochemical; conditions: for kinact: read-out: limiting Kinact on P450 1A1
T3 sequence (P04798 1-512): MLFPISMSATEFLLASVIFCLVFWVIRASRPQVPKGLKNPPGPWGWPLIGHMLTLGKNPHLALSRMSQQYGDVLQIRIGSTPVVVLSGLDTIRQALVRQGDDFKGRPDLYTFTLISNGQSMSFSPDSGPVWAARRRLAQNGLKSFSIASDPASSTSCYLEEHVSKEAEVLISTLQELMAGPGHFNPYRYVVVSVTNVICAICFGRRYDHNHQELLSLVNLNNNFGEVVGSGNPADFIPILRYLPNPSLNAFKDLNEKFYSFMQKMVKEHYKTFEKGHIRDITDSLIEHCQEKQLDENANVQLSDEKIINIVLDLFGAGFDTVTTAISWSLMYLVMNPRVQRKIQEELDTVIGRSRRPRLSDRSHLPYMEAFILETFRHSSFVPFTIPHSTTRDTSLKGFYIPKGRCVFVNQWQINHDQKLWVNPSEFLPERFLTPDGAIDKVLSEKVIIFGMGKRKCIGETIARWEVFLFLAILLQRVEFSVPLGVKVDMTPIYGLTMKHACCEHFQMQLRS

Human P450 2A6 = biological target: T4, Human P450 2A6 (Homo sapiens, UniProt P11509); assay: Coumarin 7-hydroxylation assay, P450 2A6 inhibition
T4 sequence (P11509 1-494): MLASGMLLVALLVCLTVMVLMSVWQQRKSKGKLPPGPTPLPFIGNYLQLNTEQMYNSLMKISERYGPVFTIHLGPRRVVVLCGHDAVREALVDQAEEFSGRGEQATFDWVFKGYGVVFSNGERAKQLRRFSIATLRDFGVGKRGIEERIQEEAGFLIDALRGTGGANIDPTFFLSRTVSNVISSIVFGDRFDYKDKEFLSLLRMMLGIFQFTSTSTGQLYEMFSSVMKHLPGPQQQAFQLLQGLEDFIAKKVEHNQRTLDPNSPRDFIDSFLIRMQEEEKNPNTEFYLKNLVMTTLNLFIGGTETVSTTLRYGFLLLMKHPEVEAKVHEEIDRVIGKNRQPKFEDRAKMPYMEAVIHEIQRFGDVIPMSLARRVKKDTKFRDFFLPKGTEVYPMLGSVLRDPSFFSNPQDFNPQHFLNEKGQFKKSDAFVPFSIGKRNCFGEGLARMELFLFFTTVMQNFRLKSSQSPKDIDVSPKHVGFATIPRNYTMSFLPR

Compound | Ki (Human P450 1A2) | Ki (Human P450 1A1) | kinact (Human P450 1A1) | IC50 (Human P450 2A6) | difference in the IC50 values, more effective on P450 1A2 than P450 1A1 (Human P450 1A2) | potency toward P450 1A1 relative to P450 1A2 (Human P450 1A1; IC50 1A2 vs 1A1) | inhibition activity for P450 2A6 (Human P450 2A6; at the dose of 50 μM) | IC50 (rat P450 2B1) | inhibition behavior toward P450 2B1 (rat P450 2B1) | inhibition behavior toward P450 1A2 (Human P450 1A2) | inhibition activity for P450 2B1 (rat P450 2B1; at the dose of 50 μM) | inhibition behavior toward P450 1A1 (Human P450 1A1; time-, concentration- and NADPH-dependence) | kinact (rat P450 2B1; read-out: limiting Kinact on P450 2B1)
C#Cc1cc2oc(=O)ccc2cc1OC [7E6MOC, 7-Ethynyl-6-methoxycoumarin] | 78.9 µM | 104 µM | 0.00567 s⁻¹ | > 50 µM |  |  |  | > 50 µM |  |  |  |  | 
C#Cc1ccc2cc(-c3ccccc3)c(=O)oc2c1 [7E3PC, 7-Ethynyl-3-phenylcoumarin] | 0.65 µM | 0.38 µM | 0.00417 s⁻¹ | > 50 µM |  | about five times more potent |  | > 50 µM |  | mainly results from competitive inhibition and not from mechanism-based inhibition |  |  | 
C#Cc1ccc2c(C)c(-c3ccccc3)c(=O)oc2c1 [7E4M3PC, 7-Ethynyl-4-methyl-3-phenylcoumarin] | 0.83 µM | 5.16 µM | 0.00517 s⁻¹ | > 50 µM |  |  |  | > 50 µM |  |  |  |  | 
C#Cc1ccc2c(C)c(C)c(=O)oc2c1C [7ETMC, 7-Ethynyl-3,4,8-trimethylcoumarin] | 0.87 µM | 0.57 µM | 0.00567 s⁻¹ | > 50 µM |  |  | did not show any inhibition activity | > 50 µM |  |  | did not show any inhibition activity | time-dependent inhibition; also recorded: NADPH-dependent manner | 
C#Cc1ccc2c(-c3ccccc3)c(C)c(=O)oc2c1 [7E3M4PC, 7-Ethynyl-3-methyl-4-phenylcoumarin] |  | 3.58 µM | 0.00617 s⁻¹ | > 50 µM |  |  |  | 9.16 µM | sole mechanism-based inhibitor | does not show a time-dependent loss of enzymatic activity; also recorded: sole competitive inhibitor; also recorded: does not show time- and NADPH-dependent inhibition; also recorded: completely competitive |  |  | 0.00483 s⁻¹

Continued, in another order:

Ki (Human P450 1A2) | Ki (Human P450 1A1) | kinact (Human P450 1A1) | IC50 (Human P450 2A6) | difference in the IC50 values, more effective on P450 1A2 than P450 1A1 (Human P450 1A2) | potency toward P450 1A1 relative to P450 1A2 (Human P450 1A1; IC50 1A2 vs 1A1) | inhibition activity for P450 2A6 (Human P450 2A6; at the dose of 50 μM) | Compound | IC50 (rat P450 2B1) | inhibition behavior toward P450 2B1 (rat P450 2B1) | inhibition behavior toward P450 1A2 (Human P450 1A2) | inhibition activity for P450 2B1 (rat P450 2B1; at the dose of 50 μM) | inhibition behavior toward P450 1A1 (Human P450 1A1; time-, concentration- and NADPH-dependence) | kinact (rat P450 2B1; read-out: limiting Kinact on P450 2B1)
3.15 µM | 16.8 µM | 0.00383 s⁻¹ | > 50 µM | around 5 fold |  |  | C#Cc1ccc2c(C(F)(F)F)cc(=O)oc2c1 [7E4TFC, 7-Ethynyl-4-(trifluoromethyl)coumarin] | 15.1 µM | competitive inhibitor |  |  |  | 
2.65 µM | 38.6 µM | 0.0035 s⁻¹ | > 50 µM | around 5 fold |  |  | C#Cc1ccc2c(C)cc(=O)oc2c1 [7E4MC, 7-Ethynyl-4-methylcoumarin] | > 50 µM |  |  |  |  | 
5.83 µM |  |  | > 50 µM |  |  |  | C#Cc1ccc2ccc(=O)oc2c1 [7EC, 7-Ethynylcoumarin] | > 50 µM |  |  |  |  | 
